Laboratory results reported in patent US20260207717A1, “METHODS FOR TREATING INFANTILE-ONSET POMPE DISEASE IN PEDIATRIC PATIENTS” (Amicus Therapeutics, Inc., priority 2022, published 2026).
Where two headings read alike, the source gives them in different places.

Experiments:
[1] = system: pediatric patient with infantile Pompe disease; test: Example 16: pediatric IOPD patient switched from Myozyme to ATB200/AT2221; assay type: in vivo, human
Description: A patient with severe infantile Pompe disease presented. The patient underwent a comprehensive physical examination, measurement of GAA enzyme activity, genetic testing of the GAA gene and muscle biopsy to establish the diagnosis.
The patient received the high-dose enzyme replacement therapy with Myozyme after diagnosis. The patient responded very poorly to therapy. Due to rapidly progressing Pompe disease and inadequate response to therapy, the patient's survival was at risk. For the patient, the opportunity arose to receive the new ATB200/AT2221 ERT via a compassionate use/Expanded Access Program (EAP).
The index patient has regular measurement of the urinary Glc4-levels since the change of the ERT to ATB200. The Glc4-levels were determined by an established method from the Duke University. The analysis of Glc4 is standardized as a butyl-4-aminobenzoate derivative using [^13C6] Glc4 as the internal standard (IS). The measurement is performed as ultra-performance liquid chromatography-tandem mass spectrometry (UPLC-MS/MS). The Glc4-values are then normalized to creatinine.
The patient presented with IOPD at 6 months and was started on the standard dose of Myozyme (20 mg/kg/bi-weekly). Due to the inadequate response to therapy, the dose was doubled just one month after the start of therapy in form of a weekly administration of Myozyme. […] But the cardiological situation deteriorated progressively.
Therefore, just three months after initiation of therapy, the dose was again doubled to 40 mg/kg/weekly, so the patient received a total of four times the standard dose. With the intensification of ERT and cardiac therapy, the patient's condition initially stabilized. Nevertheless, over the next few months, the patient's general condition steadily deteriorated, and the patient decompensated, especially respiratory.
The patient was switched from Myozyme to ATB200/AT2221 after eight months of insufficient Myozyme therapy response. The patient was […] at the time of the therapy switch. The new therapy (via EAP) was initiated with the oral administration of 30 mg premedication AT2221 (Miglustat) one hour prior to enzyme administration. ATB200 was administered at a bi-weekly interval at a dosage of 20 mg/kg. In the further course of treatment, the dosage of premedication and ERT was repeatedly adjusted and optimized (see Table 22). Some actual dosages in Table 22 (e.g., 37 mg/kg and 34.5 mg/kg at 32 and 38 months, respectively) varied from the target dose (e.g., 30 mg/kg) to avoid waste of extra material left in vials.
The Gross Motor Function Measure 66 (GMFM 66) is used to quantify a patients' motor skills. The GMFM 66 is a worldwide standardized test developed and validated for children with cerebral palsy to measure the development of gross motor function over time. During testing 66 items are examined and a score from 0 to 100 points is possible.

pediatric IOPD patient [2] = system: pediatric IOPD patient
pediatric IOPD patient [3] = assay type: in vivo, human
Protocol: The patient, first-born of unrelated parents […]), was born at 37 weeks by an emergency delivery due to fetal heart failure. At birth, they were resuscitated and admitted to the NICU for invasive ventilatory assistance and circulation support.
Moreover, the patient presented with severe hypotonia, elevated serum CPK (1063 U/L) and BNP ([…], nv 0-100).
At 3 days of life, an extended newborn screening resulted positive for Pompe Disease (GAA activity in DBS 0.40 μM/L, nv>3). uGlc4 was elevated (71.2 mmol/mol creatinine, nv <16.3).
At 5 days of life, the patient was treated with alglucosidase alfa (Myozyme®). Simultaneously, an immunomodulation protocol with rituximab, ev immunoglobulins and methotrexate was started. In addition, an appropriate therapy for the heart failure was started (betablocker, diuretics, ACE inhibitor).
At 2.5 years of life, they started a compassionate use/EAP therapy that combined a new ERT (cipaglucosidase 30 mg/kg/week) with an enzyme stabilizer (miglustat 115 mg) (ATB200-15 Program, Amicus Therapeutics), with clinical benefit.

CIMPR = CIMPR (Homo sapiens, UniProt P11717); test: CIMPR affinity chromatography (bound vs unbound rhGAA by GAA activity); assay type: binding
Description: Multiple batches of the rhGAA according to the disclosure were produced in shake flasks and in perfusion bioreactors using CHO cell line GA-ATB200, the product of which is referred to as “ATB200.” Weak anion exchange (“WAX”) liquid chromatography was used to fractionate ATB200 rhGAA according to terminal phosphate and sialic acid. Elution profiles were generated by eluting the ERT with increasing amount of salt. The profiles were monitored by UV (A280 nm).
To evaluate the ability of the conventional rhGAAs in MYOZYME® and LUMIZYME® to interact with the CIMPR, the two conventional rhGAA preparations were injected onto a CIMPR affinity column (which binds rhGAA having M6P groups) and the flow through collected. The bound material was eluted with a free M6 gradient. Fractions were collected in 96-well plate and GAA activity assayed by 4MU-α-glucosidase substrate. The relative amounts of unbound (flow through) and bound (M6P eluted) rhGAA were determined based on GAA activity and reported as the fraction of total enzyme. […] Indeed, only 27% of the rhGAA in MYOZYME® and 22% of the rhGAA in LUMIZYME® contained M6P that can be productive to target it to the CIMPR on muscle cells.

[4] = system: single fibers isolated from the white gastrocnemius of Gaa KO mice; test: Single fiber analysis (LAMP1/LC3 co-immunofluorescence); assay type: in vivo
Description: FIG. 17 depicts co-immunofluorescent staining of LAMP1 (green) (see for example, “B”) and LC3 (red) (see, for example, “A”) in single fibers isolated from the white gastrocnemius of Gaa KO mice treated with a vehicle, alglucosidase alfa, or ATB200. “C” depicts clearance of autophagic debris and absence of enlarged lysosome. A minimum of 30 fibers were examined from each animal.
As a result, a significant portion of muscle fibers analyzed (36-60%) from ATB200-treated mice appeared normal or near-normal.

clinical = settings: human, in vivo
Protocol: At 10Y7M of age, the blood of the patient was collected to gather pharmacokinetic (PK) data for their treatment that included weekly administration of 20 mg/kg ATB200 and 130 mg AT2221.
Blood sampling of the patient was conducted to gather pharmacokinetic (PK) data for their treatment that included administration of 25 mg/kg ATB200 and 195 mg AT2221 biweekly.
At 12Y5M of age, the patient has been receiving ATB200 (20 mg/kg) and AT2221 (195 mg) biweekly for 1 year. […] At this time, the PK levels of both ATB200 and AT2221 were taken from the patient.

[5] = Miglustat plasma pharmacokinetics; assay type: in vivo, human; settings: 130 mg to 260 mg
Protocol: At the recommended 260 mg dose, the mean Cmax was approximately 3 mcg/mL and the mean AUC was approximately 25 mcg*hr/mL. The mean time to reach the maximum concentration ranged from 2 hours to 3 hours.

[6] = age ~1 week, Myozyme double dose 40 mg/kg q2wk
[7] = after new immunomodulation cycle, on Myozyme
[8] = worsening with high antibody titer, on Myozyme

Sequence of CIMPR (P11717 41-2491, species assumed): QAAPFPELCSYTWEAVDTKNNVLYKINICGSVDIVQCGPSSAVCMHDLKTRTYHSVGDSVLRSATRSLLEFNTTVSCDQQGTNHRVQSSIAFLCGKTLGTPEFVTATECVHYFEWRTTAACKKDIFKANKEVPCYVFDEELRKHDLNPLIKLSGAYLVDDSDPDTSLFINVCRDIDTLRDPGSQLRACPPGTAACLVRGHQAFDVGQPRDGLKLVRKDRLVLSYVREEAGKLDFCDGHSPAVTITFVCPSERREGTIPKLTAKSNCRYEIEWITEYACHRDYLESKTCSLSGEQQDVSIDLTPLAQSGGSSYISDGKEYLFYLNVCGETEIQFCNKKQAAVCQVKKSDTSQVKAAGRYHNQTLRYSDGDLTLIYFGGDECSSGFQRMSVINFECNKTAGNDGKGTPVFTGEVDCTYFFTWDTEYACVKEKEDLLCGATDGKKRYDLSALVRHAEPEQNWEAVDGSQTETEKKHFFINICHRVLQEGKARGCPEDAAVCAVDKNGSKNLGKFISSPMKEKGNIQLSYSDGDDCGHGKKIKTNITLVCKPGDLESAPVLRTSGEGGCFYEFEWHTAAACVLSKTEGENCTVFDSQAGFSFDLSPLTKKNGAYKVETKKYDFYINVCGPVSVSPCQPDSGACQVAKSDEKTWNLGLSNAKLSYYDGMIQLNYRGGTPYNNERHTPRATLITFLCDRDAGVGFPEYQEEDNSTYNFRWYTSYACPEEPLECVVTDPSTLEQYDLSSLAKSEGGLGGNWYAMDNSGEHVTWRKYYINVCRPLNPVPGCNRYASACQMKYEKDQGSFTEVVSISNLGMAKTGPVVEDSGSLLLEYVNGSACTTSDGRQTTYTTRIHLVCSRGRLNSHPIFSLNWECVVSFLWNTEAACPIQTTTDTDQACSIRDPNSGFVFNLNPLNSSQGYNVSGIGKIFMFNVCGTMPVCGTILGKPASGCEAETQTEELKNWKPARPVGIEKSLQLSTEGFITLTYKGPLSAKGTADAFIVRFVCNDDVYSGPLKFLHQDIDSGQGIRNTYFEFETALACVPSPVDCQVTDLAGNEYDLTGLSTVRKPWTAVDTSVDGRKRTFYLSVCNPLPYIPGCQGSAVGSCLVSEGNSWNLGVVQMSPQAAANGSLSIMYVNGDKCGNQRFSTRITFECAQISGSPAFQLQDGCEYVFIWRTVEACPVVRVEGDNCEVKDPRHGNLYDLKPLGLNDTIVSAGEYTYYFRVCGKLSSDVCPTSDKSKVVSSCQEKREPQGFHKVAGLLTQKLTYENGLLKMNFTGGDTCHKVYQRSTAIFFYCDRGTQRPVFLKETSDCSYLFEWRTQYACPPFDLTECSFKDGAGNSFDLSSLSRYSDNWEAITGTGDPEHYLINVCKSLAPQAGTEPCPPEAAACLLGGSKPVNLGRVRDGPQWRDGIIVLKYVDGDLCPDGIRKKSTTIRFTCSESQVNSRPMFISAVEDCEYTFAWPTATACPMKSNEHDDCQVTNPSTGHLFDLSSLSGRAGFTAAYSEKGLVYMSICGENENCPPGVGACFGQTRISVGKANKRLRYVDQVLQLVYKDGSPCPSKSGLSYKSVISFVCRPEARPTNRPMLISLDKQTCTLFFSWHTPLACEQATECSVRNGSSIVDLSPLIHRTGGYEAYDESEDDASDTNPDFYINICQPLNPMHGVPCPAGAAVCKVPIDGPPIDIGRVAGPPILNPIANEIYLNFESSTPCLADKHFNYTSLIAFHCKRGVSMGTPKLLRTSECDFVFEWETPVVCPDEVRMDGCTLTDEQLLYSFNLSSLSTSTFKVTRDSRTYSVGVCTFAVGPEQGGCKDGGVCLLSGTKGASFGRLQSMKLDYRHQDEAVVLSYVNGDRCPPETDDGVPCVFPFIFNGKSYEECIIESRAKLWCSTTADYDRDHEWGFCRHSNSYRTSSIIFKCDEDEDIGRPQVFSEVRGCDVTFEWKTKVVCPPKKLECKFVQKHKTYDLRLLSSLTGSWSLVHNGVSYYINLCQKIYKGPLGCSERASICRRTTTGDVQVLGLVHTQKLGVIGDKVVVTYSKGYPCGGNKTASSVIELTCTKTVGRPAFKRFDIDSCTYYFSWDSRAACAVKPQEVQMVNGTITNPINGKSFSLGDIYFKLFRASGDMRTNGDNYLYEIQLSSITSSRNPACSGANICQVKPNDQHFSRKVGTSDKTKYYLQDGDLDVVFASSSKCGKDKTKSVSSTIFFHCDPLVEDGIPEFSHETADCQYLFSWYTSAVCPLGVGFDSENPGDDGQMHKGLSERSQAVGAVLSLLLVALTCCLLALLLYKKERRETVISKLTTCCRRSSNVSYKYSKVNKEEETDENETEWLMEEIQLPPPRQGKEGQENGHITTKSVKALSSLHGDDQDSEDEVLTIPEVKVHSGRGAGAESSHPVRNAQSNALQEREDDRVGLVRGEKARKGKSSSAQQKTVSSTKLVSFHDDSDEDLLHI

With “MYOZYME®: conventional rhGAA product containing alglucosidase alfa” the motor function ([1]; 20 mg/kg/weekly) was “slight motor improvements”, the response to therapy ([1]; fourfold dose of ERT (40 mg/kg/weekly)) was “very poor” and the CK (pediatric IOPD patient [2]; Myozyme 50 mg/kg q2wk) was 2514-2722 U/L. The CK (pediatric IOPD patient [2]; Myozyme 60 mg/kg q2wk) was 3143-3625 U/L, the LVEF (pediatric IOPD patient [2]; Myozyme 60 mg/kg q2wk, 2 D) was 70.5% and the LVMI (pediatric IOPD patient [2]; Myozyme 60 mg/kg q2wk, 2 D) was 26.2 g/m^2. It also gave a CK (pediatric IOPD patient [2]; Myozyme 30 then 40 mg/kg qwk) of 2603 U/L, a Pro-BNP (pediatric IOPD patient [2]; Myozyme 30 then 40 mg/kg qwk) of 401.5 pg/mL and a CK (pediatric IOPD patient [2]; [6]) of 880 U/L. For the same compound, the Glc4 (pediatric IOPD patient [2]; [6]) was 41.88 mmol/mol CRE, the Pro-BNP (pediatric IOPD patient [2]; [6]) was 10169 pg/mL and the LVMI (pediatric IOPD patient [2]; age ~1 week, Myozyme double dose 40 mg/kg q2wk, M-mode) was 147 g/m^2. For the same compound, the CK (pediatric IOPD patient [2]; change to ATB200 20 mg/kg q2w) was 1444 U/L, the “reactions on ERT” value (pediatric IOPD patient [2]; human, in vivo) was “skin rash, dyspnea, a cough and a pale-like complexion” and the CPK (pediatric IOPD patient [3]; [7]) was 4,728 U/L. The EF (pediatric IOPD patient [3]; [7]) was 48%, the LVMI (pediatric IOPD patient [3]; [7]) was 118 g/m2 and the uGlc4 (pediatric IOPD patient [3]; [7]) was 35 mmol/mol crea. The CPK (pediatric IOPD patient [3]; on Myozyme) was 1877 u/L, the EF (pediatric IOPD patient [3]; on Myozyme) was 50% and the uGlc4 (pediatric IOPD patient [3]; on Myozyme) was 20.2 mmol/mol crea. It also gave an LVMI (pediatric IOPD patient [3]; on Myozyme since day 5) of 116.6 g/m2, a BNP (pediatric IOPD patient [3]; [8]) of 237 U/L and an EF (pediatric IOPD patient [3]; [8]) of 50%. For the same compound, the LVMI (pediatric IOPD patient [3]; [8]) was 229 g/m2, the “serum CPK, maximum” value (pediatric IOPD patient [3]; [8]) was 6,795 U/L and the “uGlc4, maximum” value (pediatric IOPD patient [3]; [8]) was 50 mmol/mol creatinine. The “rhGAA that binds to the CIMPR (contains M6P)” value (CIMPR; fraction of total enzyme by GAA activity) was 27%, the “rhGAA that did not bind to the CIMPR” value (CIMPR; fraction of total enzyme by GAA activity (FIG. 9A, 9B)) was 73% and the “lysosome size and autophagic buildup compared to vehicle-treated mice” value [4] was “did not show any significant difference”.
With `CCCCN1C[C@H](O)[C@@H](O)[C@H](O)[C@H]1CO` [miglustat, (2R,3R,4R,5S)-1-butyl-2-(hydroxymethyl)piperidine-3,4,5-triol, reference compound] the “AUC relative to adult percentiles” value (clinical) was “below the adult 10th percentile”, the “Cmax relative to adult percentiles” value (clinical) was “within the adult 10th-90th percentile” and the AUC (clinical; AT2221 AUC) was 16100 to 24600 ng·h/mL. The Cmax (clinical; AT2221 Cmax) was 1800 to 3130 ng/mL and the “dose proportionality of AUC and Cmax” value [5] was “linear pharmacokinetics”.
